ChEMBL document CHEMBL1142251, “Identification of novel inhibitors of bacterial surface enzyme Staphylococcus aureus Sortase A” (Bioorg Med Chem Lett, 2008)
pIC50: −log10 of the molar value.

These molecules were tested against T1, Sortase A (Staphylococcus aureus, UniProt Q9S446) (assay: Inhibition of Staphylococcus aures sortase A by FRET assay).
T1 sequence (Q9S446 whole entry): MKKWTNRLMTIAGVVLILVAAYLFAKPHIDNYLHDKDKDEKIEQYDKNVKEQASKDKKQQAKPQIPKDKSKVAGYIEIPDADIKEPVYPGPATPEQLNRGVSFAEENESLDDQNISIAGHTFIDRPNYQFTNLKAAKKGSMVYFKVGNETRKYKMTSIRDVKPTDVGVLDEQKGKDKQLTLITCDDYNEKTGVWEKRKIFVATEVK

Compound | pIC50
CS(=O)(=NC=C(C#N)C(=O)c1ccco1)c1ccc(Oc2ccc([N+](=O)[O-])cn2)cc1 (stereo not given) | 3.82
CS(=O)(=NC=C(C#N)C(=O)c1cccs1)c1ccc(Oc2ccc([N+](=O)[O-])cn2)cc1 (stereo not given) | 3.40
N#Cc1c(SCC(=O)c2ccc([N+](=O)[O-])cc2)[n-][s+]c1SCC(=O)c1ccc([N+](=O)[O-])cc1 | 4.01
O=C(/C=C/c1cccs1)Nc1ccc(N2CCOCC2)c(C(=O)O)c1 | 4.12
COC(=O)c1cc(NC(=O)/C=C/c2cccs2)ccc1N1CCOCC1 | 4.15
Cc1ccc(S(=O)(=O)NC(=O)Nc2ccc(NC(=O)c3ccccc3O)cc2)cc1 | 3.65
O=C(/C=C/c1ccco1)Nc1ccc(N2CCOCC2)c(CO)c1 | 3.95
COC(=O)c1cc(NC(=O)CCc2cccs2)ccc1N1CCOCC1 | < 3.22
O=Cc1cc(NC(=O)/C=C/c2ccco2)ccc1N1CCOCC1 | 3.97
NC(=O)c1cc(NC(=O)/C=C/c2cccs2)ccc1N1CCOCC1 | 3.98
O=Cc1cc(NC(=O)/C=C/c2cccs2)ccc1N1CCOCC1 | 4.11
O=C(/C=C/c1ccco1)Nc1ccc(N2CCOCC2)c(C(=O)O)c1 | 3.74
O=C(CCc1ccco1)Nc1ccc(N2CCOCC2)c(C(=O)O)c1 | < 3.22
COC(=O)c1cc(NC(=O)/C=C/c2ccco2)ccc1N1CCOCC1 | 4.24
O=C(CCc1cccs1)Nc1ccc(N2CCOCC2)c(C(=O)O)c1 | < 3.22
N=C(N)N/N=C/c1ccc(/C=N/NC(=N)N)cc1 | 3.56
O=C(/C=C/c1cccs1)Nc1ccc(N2CCOCC2)c(CO)c1 | 4.14
COC(=O)c1cc(NC(=O)CCc2ccco2)ccc1N1CCOCC1 | < 3.22
Nc1nccc(-c2ccc(NC(=O)Nc3ccc(Cl)cc3)cc2)n1 | 3.40
O=C(O)/C=C/C(=O)Nc1ccc(NC(=O)c2ccccc2O)cc1 | 3.90
